Measured values: paper PMC11686366 (Nature Communications, 2024)

Legend:
[1] = tested on: thiamine transporters (SLC19A2 and SLC19A3); format: cell-based, human
[2] = target: T1, human SLC19A3 (Homo sapiens, UniProt Q9BZV2); experiment: Microscale thermophoresis; format: binding; settings: for Kd: MST
T1 sequence (Q9BZV2 1-496): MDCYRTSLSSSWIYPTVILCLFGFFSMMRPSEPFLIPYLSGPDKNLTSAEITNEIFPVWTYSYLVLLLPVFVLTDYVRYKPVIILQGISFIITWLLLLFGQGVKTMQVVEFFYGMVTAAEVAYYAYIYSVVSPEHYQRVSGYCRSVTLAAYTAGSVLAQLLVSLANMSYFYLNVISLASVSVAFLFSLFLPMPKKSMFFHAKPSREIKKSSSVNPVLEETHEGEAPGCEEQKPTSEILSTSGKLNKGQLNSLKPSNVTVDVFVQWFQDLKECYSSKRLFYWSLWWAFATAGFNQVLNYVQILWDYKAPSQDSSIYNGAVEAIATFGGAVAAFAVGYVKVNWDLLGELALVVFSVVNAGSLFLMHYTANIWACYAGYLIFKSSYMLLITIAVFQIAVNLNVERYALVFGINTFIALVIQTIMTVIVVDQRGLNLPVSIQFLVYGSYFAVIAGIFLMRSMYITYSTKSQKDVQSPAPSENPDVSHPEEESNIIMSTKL

[3] = target: T2, human SLC19A2 (Homo sapiens, UniProt O60779); experiment: Microscale thermophoresis; format: binding; settings: MST
T2 sequence (O60779 1-497): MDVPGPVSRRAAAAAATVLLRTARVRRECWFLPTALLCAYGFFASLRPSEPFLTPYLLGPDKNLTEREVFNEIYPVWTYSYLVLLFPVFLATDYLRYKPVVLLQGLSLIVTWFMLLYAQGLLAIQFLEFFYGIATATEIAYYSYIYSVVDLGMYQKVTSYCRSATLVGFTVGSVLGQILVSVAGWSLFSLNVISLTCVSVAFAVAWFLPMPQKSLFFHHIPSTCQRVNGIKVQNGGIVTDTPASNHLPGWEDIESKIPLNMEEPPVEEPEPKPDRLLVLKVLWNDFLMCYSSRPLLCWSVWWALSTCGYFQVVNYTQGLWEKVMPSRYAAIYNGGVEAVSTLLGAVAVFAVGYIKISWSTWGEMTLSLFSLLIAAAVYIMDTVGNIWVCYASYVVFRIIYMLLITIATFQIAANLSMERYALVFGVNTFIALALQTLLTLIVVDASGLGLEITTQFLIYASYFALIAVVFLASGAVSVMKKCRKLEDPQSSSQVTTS

[4] = pyridoxine, bipolar molecule; cited from earlier work

Structure (SMILES)	Inhibition of 3H-thiamine uptake (in words) [1]	also measured
CCc1nc(N)nc(N)c1-c1ccc(Cl)cc1 [pyrimethamine]	inhibitory effects	
Cc1ncc(C[n+]2csc(CCO)c2C)c(=O)[nH]1 [oxythiamine]	inhibitory effects	
Cc1cnc(Nc2ccc(OCCN3CCCC3)cc2)nc1Nc1cccc(S(=O)(=O)NC(C)(C)C)c1 [fedratinib]	inhibitory effects	
Cc1ncc(C[n+]2csc(CCO)c2C)c(N)n1 [thiamine]		Kd ([2]; pH 6.0): ~250 nM; Kd ([2]; pH 7.5): ~154000 nM; Kd ([3]; pH 6.0): ~1200 nM; Kd ([3]; pH 7.5): ~78400 nM
N#CCNC(=O)c1ccc(-c2ccnc(Nc3ccc(N4CCOCC4)cc3)n2)cc1 [momelotinib]	inhibitory effects	
CCN1CCN(Cc2ccc(Nc3ncc(F)c(-c4cc(F)c5nc(C)n(C(C)C)c5c4)n3)nc2)CC1 [abemaciclib]	inhibitor	
COc1cc(Cc2cnc(N)nc2N)cc(OC)c1OC [trimethoprium]	inhibitory effects	
CN(C)C(=N)N=C(N)N [metformin]	inhibitory effects	Affinity (in words) ([2]; Supplementary Fig. 12 / 11b): millimolar affinity
CCCc1ncc(C[n+]2ccccc2C)c(N)n1 [amprolium]	inhibitory effects	Kd ([2]; pH 6.0): ~450 nM
Cc1cc(C#N)cc(C)c1Oc1nc(Nc2ccc(C#N)cc2)nc(N)c1Br [etravirine]	inhibitor	
Cc1ncc(CO)c(CO)c1O [pyridoxine]		pKa (lower value) [4]: 5.6
